Test system: RPChiPS771 hiPSCs
Assay: Differentiation of RPChiPS771 into definitive endoderm with or without CHIR99021, SOX17+ cells
Type: cell-based, human
Details: protocol B (CHIR99021 added) versus protocol A (without CHIR99021)
Experimental: Medium 1 (M1): Initiation of differentiation was done by replacing the culture with Medium 1, including DMEM with 4, 500 mg/L glucose supplemented with 3 μM CHIR99021 (Stemgent), 100 ng/mL recombinant human activin-A (Cell Guidance Systems Ltd), and 2% B27 insulin (+) supplement (Life Technologies). On days 1 and 2, the media were replaced with medium 1 without CHIR99021. Cells were fixed in 4% paraformaldehyde (NACALAI TESQUE, INC.) in PBS, permeabilized with 0.1% Triton X-100 (NACALAI TESQUE, INC.), and were then blocked with 20% Blocking One (NACALAI TESQUE, INC., Japan) in PBST (0.1% Tween-20 in PBS). Antibodies were diluted in 20% Blocking One (NACALAI TESQUE, INC., Japan) in PBST (0.1% Tween-20 in PBS). Cells were counterstained with […] (DAPI) (Roche Diagnostics K.K., Switzerland). The following primary antibodies were used: mouse anti-Oct3/4 (Santa Cruz Biotechnology, Inc.), goat anti-Sox17 (R&D Systems, Inc.), goat anti-PDX1 (R&D Systems, Inc.), guinea pig anti-insulin (Dako), rabbit anti-C-peptide (Cell Signaling Technology, Inc.), and mouse anti-Nkx6.1 (Developmental Studies Hybridoma Bank). […] Positive cells versus total cells (DAPI-positive cells) were quantified using ImageXpress Micro cellular imaging system (Molecular Devices, LLC.).

Cc1c[nH]c(-c2cnc(NCCNc3ccc(C#N)cn3)nc2-c2ccc(Cl)cc2Cl)n1 [CHIR99021, 6-[[2-[[4-(2,4-dichlorophenyl)-5-(4-methyl-1H-imidazole-2-yl)-2-pyrimidinyl]amino]ethyl]amino]nicotinonitrile]
proportion of SOX17+ cells: a higher proportion of SOX17+ cells overall

— US20210115397A1, “METHOD FOR PROMOTING DIFFERENTIATION OF PLURIPOTENT STEM CELLS” (TOKYO INSTITUTE OF TECHNOLOGY, priority 2018, published 2021)
